In patent publication US12145959B2, “Bile acid recycling inhibitors for treatment of hypercholemia and cholestatic liver disease” (SHIRE HUMAN GENETIC THERAPIES, INC., priority 2011, dated 2024):
Each block holds one compound with its values, some of them ahead of it.

What was measured:
Male ZDF rats = assay: Plasma bile acid levels of ZDF rats after ascending doses of SC-435 and LUM002; type: in vivo, rat; details: ZDF rats n=4; oral gavage twice a day 2 weeks; all doses (SC-435 1, 10, 30 mg/kg; LUM002 0.3, 1, 3, 10, 30 mg/kg); end of second week
Method: (§1) FIG. 2. Plasma bile acid levels of ZDF rats after administration of ascending doses of SC-435 and LUM002. Male ZDF rats (n=4) were administered vehicle, SC-435 (1, 10 or 30 mg/kg) or LUM002 (0.3, 1, 3, 10 or 30 mg/kg) by oral gavage twice a day for 2 weeks. Plasma bile acid levels were determined at the end of the second week. Data are expressed as mean values±SEM.
as §1, with “Plasma” for “FIG. 2. Plasma”, “week. […]” for “week.”

Male beagle dogs [1] = assay: Time to onset of activity of a single oral dose on postprandial total serum bile acids in beagle dogs; type: in vivo, dog
Method: Animal Study on the Duration of Action and Time to Onset of ASBTI Activity of a Single Oral Dose of LUM001 on Postprandial Total Serum Bile Acids in Beagle Dogs
Test compound: LUM001—Form I
(§2) Dosage preparation and administration: LUM001 was dissolved in water at concentrations that required the administration of 0.2 ml/kg of solution. Solutions were placed into gelatin capsules, Torpac Inc., size 13 Batch 594, East Hanover NJ, and administered orally.
(§3) Dogs: Male beagle dogs were obtained from Covance Research Products, Cumberland VA or Marshall Farms USA, Inc., North Rose NY A total of 20 dogs, 1 to 5 years old, 6.8 to 15.6 kg body weight, were used in these experiments. The dogs were conditioned to a 12 hour light/dark cycle and maintained on a feeding restriction of 1 hour per day access to food (Richman Standard Certified Canine Diet #5007, PMI Nutrition, Inc., St Louis MO) from 7 to 8 AM. They were trained to eat a special meal promptly within 20 minutes when presented (1 can. 397 g, Evanger's 100% Beef for Dogs, Evanger's Dog and Cat Food Co., Inc., Wheeling IL, mixed with 50 g of sharp cheddar cheese.).
(§4) Serum Total Bile Acid (SBA) Measurement: SBA was measured by an enzymatic assay. SBA values are expressed as μg of total bile acids/ml of serum.
To estimate the details of this plateau, 6 dogs were given a test meal and blood samples for SBA measurement were collected at −30, 0, 30, 60, 65, 70, 80, 90, 120, 180, 240, 360, 480, 720, 1410 and 1440 minutes from the time of feeding. Any remaining food was removed 20 min after it was first presented to the dogs. To establish a method for extending the elevated plateau of SBA, 6 dogs were given the meal at 0 hr and an additional ½ size meal again 4 hr after their first meal. Blood samples were taken at 0, 1, 2, 3, 4, 4.5, 6, 7 and 8 hr. The curves for SBA level vs time obtained in these experiments were used as references for determining blood sampling times in experiments with LUM001. […]

Male beagle dogs [2] = assay: Duration of action on dog serum bile acids, Method 2: one meal and extended interval between dosing and feeding; type: in vivo; details: administered 2 hours prior to feeding
Method: as §2, §3, §4
Method 2: One Meal and Extended Interval Between Dosing and Feeding: Alternatively, 6 dogs were dosed with water or LUM001, at 0.05 mg/kg, p.o. at 1.5 hours prior to being fed, or 0.05, or 0.2 mg/kg, at 2 hours prior to feeding. This moved the elevated SBA plateau out in time from the dose point. […]

healthy adult subjects = assay: Phase 1 ascending multiple oral dose study: serum and fecal bile acid analysis; type: in vivo, human; details: healthy adults; ascending multiple oral doses qAM, 28 days
Method: FIG. 3. Serum bile acid (SBA) analysis of healthy subjects after administration of ascending multiple oral doses of LUM001 a randomized, double-blind, placebo-controlled study. Shown in the graphs are data from the 0.5 (n=16), 1.0 (n=8), 2.5 (n=8), 5.0 (n=8) and 10 (n=8) mg dosing groups. On Day 1, blood was drawn for baseline SBA at approximately 30 minutes before and after breakfast and 30 minutes after lunch and dinner. Samples were obtained on day 14.
FIG. 4. Fecal bile acid analysis of healthy subjects after administration of ascending multiple oral doses of LUM001 a randomized, double-blind, placebo-controlled study. […]
SBA were analyzed as part of the routine clinical analysis of the serum samples collected at each time point.
Fecal Bile Acid Analysis: Fecal samples were collected for all panels except the dose-titration panel, 2.5 (2) and 5 mg (2), on Days 9 through 14 and 23 through 28 (data shown in FIG. 4). Twenty-four hour FBA excretions were quantified by Pharmacia for Days 9 through 14 and 23 through 28. […] The weight of each 24-hour fecal collection was recorded on the CRFs. […]
An aliquot for each 24-hour fecal sample collected on Days 23 through 28 was combined, homogenized, and analyzed for bile acid species concentrations by ANAPHARM. The fecal bile acid species evaluated include chenodeoxycholic acid, cholic acid, deoxycholic acid, and lithocholic acid.

[3] = Systemic exposure (pharmacokinetics) of LUM001 in patients under 18, study NB-00-02-014; type: in vivo, human; details: QD in the morning, measured on day eight
Method: (§5) LUM001 has been administered to forty patients under the age of 18 years old. […] The drug was administered once-a-day (QD) in the morning for fourteen days. […] These doses are similar to those using to treat patients with cholestatic diseases.

[4] = test system: children and adolescents under the age of eighteen; assay: Human study of fasting and post-prandial peak serum bile acids in children and adolescents; type: in vivo
Method: FIG. 5. Fasting serum bile acid levels and morning post-prandial peak in children under the age of 12. LUM001 was administered once-a-day (QD) in the morning for fourteen days.
Human Study to Test Efficacy of ASBTI in Lowering Serum Bile Acids
as §5
The efficacy of LUM001 was determined by measuring total serum bile acids after eight days of dosing in children and adolescents under the age of eighteen. Thirty minutes before the next drug administration, at approximately 8 am in the morning, serum bile acid levels were measured. The child had refrained from food for 12 hours prior to this sample thus providing a fasted level of serum bile acid. After breakfast, serum bile acids were measured for up to the next 4 hours (8 am to noon) and the peak serum bile acid concentration noted.

Male beagle dogs [5] = details: previous experiments (2); cited from earlier work
[6] = test system: Male Zucker diabetic fatty rats (ZDF/GmiCrl-fa/fa); assay: ZDF rat study of 264W94: fecal bile acid excretion, fecal NEFA and plasma bile acids; type: in vivo; details: 2 weeks
Method: Animal preparation. Male Zucker diabetic fatty rats (ZDF/GmiCrl-fa/fa) were purchased from Charles River (Raleigh, NC) and housed under controlled conditions (12:12 light-dark cycle, 24° C. and 50% relative humidity) with free access to rodent food (Purina 5008, Harlan Teklad, Indianapolis, IN). All rats arrived at seven weeks of age (+3 days). After a one-week acclimation period, rats were anesthetized with isoflurane (Abbott Laboratories, IL) and tail-vein blood samples were collected at 9 am without fasting. Blood glucose levels were measured using a glucometer (Bayer, Leverkusen, Germany). In order to ensure balanced treatment groups, ZDF rats were assigned to six treatment groups based upon baseline glucose: vehicle (0.5% HPMC, 0.1% Tween80) and five doses of 264W94 (0.001, 0.01, 0.1, 1, 10 mg/kg). All treatments were given via oral gavage twice a day and animals were followed for two weeks with blood samples collected from tail vein at the end of each week at 9 am without fasting. Fecal samples were collected for 24 hours during the second week of treatment.
Measurement of clinical chemistry parameters. Non-esterified fatty acids (NEFA), bile acids, and bile acids in fecal extraction were measured using the Olympus AU640 clinical chemistry analyzer (Beckman Coulter, Irving, TX).

[7] = FIG. 5 legend: children under the age of 12, QD for fourteen days
[8] = LUM001 treated patients under eighteen, after eight days of dosing
[9] = patients under eighteen, after eight days of dosing

SMILES: CCCCC1(CCCC)CS(=O)(=O)c2ccc(N(C)C)cc2[C@@H](c2ccc(OCCCC[N+]34CCN(CC3)CC4)cc2)[C@H]1O.CS(=O)(=O)[O-] [SC-435, 1-[4-[4-[(4R,5R)-3,3-dibutyl-7-(dimethylamino)-2,3,4,5-tetrahydro-4-hydroxy-1,1-dioxido-1-benzothiepin-5-yl]phenoxy]butyl]4-aza-1-azoniabicyclo[2.2.2]octane methanesulfonate salt, reference compound]
Plasma bile acid levels (Male ZDF rats): decreased

SMILES: CCCC[C@]1(CC)CS(=O)(=O)c2ccc(N(C)C)cc2[C@@H](c2cccc(NC(=O)N[C@@H]3O[C@H](COS(=O)(=O)[O-])[C@@H](O)[C@H](OCc4ccccc4)[C@H]3O)c2)[C@H]1O.[K+] [LUM002]
Plasma bile acid levels (Male ZDF rats): decreased

Systemic absorption (levels of systemic exposure) [3]: minimally absorbed
SMILES: CCCCC1(CCCC)CS(=O)(=O)c2ccc(N(C)C)cc2[C@@H](c2ccc(OCc3ccc(C[N+]45CCN(CC4)CC5)cc3)cc2)[C@H]1O [LUM001]
Effect of increasing the dose on onset time to significant SBA lowering (Male beagle dogs [1]; 1 mg/kg versus 0.2 mg/kg): did not shorten the onset time | ED50 (Male beagle dogs [1]; Canis lupus familiaris, oral, read-out: ED50 dose in the dog SBA model): 0.2 mg/kg | Threshold dose for significant lowering of SBA levels (Male beagle dogs [1]; oral, 1 hour after feeding): 0.05 mg/kg | Dose required to produce a significant effect on SBA (Male beagle dogs [2]): 0.2 mg/kg | Fecal bile acids (healthy adult subjects): significant increase | Serum bile acids (healthy adult subjects): significant reduction | Decrease in average fasting serum bile acid level versus placebo patients [4, 7]: 24% | Decrease in average post-prandial peak serum bile acid level versus placebo patients [4, 7]: 23% | Average fasting serum bile acid level [4, 8]: 6.5 µmol/L | Average post-prandial peak serum bile acid level [4, 8]: 9.2 µmol/L | Decrease in average fasting serum bile acid level versus placebo patients [4, 9]: 24% | Decrease in average post-prandial peak serum bile acid level versus placebo patients [4, 9]: 23% | Time that the compound remains active (Male beagle dogs [5]): more than 4.5 hours

SMILES: CCCC[C@]1(CC)CS(=O)(=O)c2cc(OC)c(OC)cc2[C@@H](c2ccccc2)N1 [Compound 264W94]
Fecal bile acid concentrations elevated, compared to vehicle treated rats ([6]; 0.001-10 mg/kg oral gavage twice a day, 24 h feces in second week, maximum elevation): up to 6.5 fold | Bile acids in the feces ([6]; oral administration twice a day): dose-dependently increased
